Holding throughout (type): cell-based
In series [1] the test system is HIV-1. Briefly: Adsorption assay (RT activity in supernatant). As to conditions: 10 µM, compound and virions added to MT-4 cells simultaneously, washed out after 2 h, RT activity 5 days after infection. On the procedure: (§1) To address virion binding and entry in a competitive setting, we performed an adsorption assay where test compounds and virions were added to MT-4 cells simultaneously and were washed out after 2 h of incubation. In parallel, we performed a replication assay where MT-4 cells were infected with HIV-1 and the tested compounds were added 1 h later. In both cases, the infection was evaluated by measuring reverse transcriptase activity in a cell-free supernatant 5 days after the infection (Fig. 3). As controls, PBS (phosphate-buffered saline) and inhibitors of different HIV-1 life-cycle steps were used: AMD (AMD3100), an inhibitor of gp120 attachment to CXCR4 receptors of the target cell, thus preventing HIV-1 adsorption and entry; AZT (azidothymidine), an inhibitor of reverse transcriptase; and RAL (raltegravir), an integrase inhibitor.
(§2) MT-4 cells were seeded in 80 µl of the Roswell Park Memorial Institute (RPMI) medium in the amount of 2 × 10^5 cells per well of a 96-well plate, and 10 µl of the virus stock were immediately added with the final multiplicity of infection (MOI) of 0.05. For a replication assay, the infected cells were incubated at 37 °C for 1 h before the addition of compounds being tested (10 µM final concentration) and subsequently cultivated at 37 °C for another 5 days. For an adsorption test, by contrast, the compounds (10 µM final concentration) were added simultaneously with the virus, and after 2 h of incubation, the cells were washed three times with PBS to remove the compounds and unbound virions; after the addition of 100 µl of the RPMI medium, the cells were cultivated at 37 °C for 5 days. Five days post-infection, aliquots of virus-containing cell-free supernatants were harvested and analysed by reverse transcriptase (RT) assay (described in the Supplementary Information). The experiments were performed as biological replicates where the sample size for each condition was n = 3.
(§3) RT assay. The reverse transcriptase (RT) activity in a cell-free supernatant was assessed by an α-32P RT assay. Briefly, the RT activity in the culture medium, which corresponded to the amount of HIV-1, was used to produce a DNA copy of an RNA template by extending a complementary oligo dT DNA primer with radiolabelled nucleotides. A reaction mixture containing 50 mM Tris-HCl pH 7.8, 75 mM KCl, 2 mM DTT, 5 mM MgCl2 and 0.5% NP-40 (all Sigma-Aldrich), 5 µg per ml of poly (rA)-poly (dT) (The Midlan Certified Reagent Company) with 1 µl 10-mCi/ml [α-32P]dTTP (American Radiolabeled Chemicals) per ml, and the tested sample was incubated at 37°C for two hours, after which 10 µl were spotted on DEAE blotting paper (PerkinElmer) and air-dried. After five washes with SSC buffer (0.15 M NaCl, 0.015 M sodium citrate) and three additional washes with 85% ethanol, the blotting paper was exposed to Phosphoscreen overnight, which was scanned on a Typhoon 9410 Phosphorimager instrument (GE Healthcare). The intensity of the dots was analysed by the ImageQuant software (GE Healthcare).

The nature of the next series: in vitro. Particulars: human. From the text: (§4) Based on a facile [2 + 2 + 2]‐cycloisomerization strategy, a robust three‐step synthetic entry into a novel family of helical extended diquats (helquats) was developed. After a straightforward Knoevenagel condensation of the respective helquat parent with different aldehydes (Fig. 2A), more than 500 helquat-based compounds were synthesized and screened for anti-HIV-1 activity in an assay based on the inhibition of the virus-induced cytopathic effect in MT-4 cells, evaluated after 5 days post-infection by an XTT assay. In parallel with the screening, the XTT assay was also used to determine the cytotoxicity of all compounds (Fig. 2B; for more information on the synthesis and characterization of the compounds, see the Supplementary Information). […]
(§5) XTT screening. MT-4 cells were seeded in 80 µl of the RPMI without Phenol Red in the amount of 3x10^4 cells per well of a 96-well plate. 10 µl of tested compounds (500 µM at 5% DMSO) or controls (5% DMSO at PBS, AZT 1mM, SQV 100 µM) were added to the cells; after one-hour incubation at 37 °C, HIV-1 (NL4-3 strain) was added with MOI = 0.05 and the infected cells were cultivated for five days.
The viability of the cells was measured by the XTT cell viability and proliferation assay. Briefly, 50 µl of the XTT solution with the addition of PMS (both VWR) was added to the cultivation media and incubated in a humidified incubator maintained at 37 °C with 5% CO2 for four hours, after which absorbance at 560 nm was measured on a VICTOR plate reader (PerkinElmer).
The cytotoxicity of the tested compounds was evaluated separately without virus addition and analysed by the same assay.
(§6) For compounds selected as hits in the initial screening, the effective concentration that inhibits 50% of the viral activity (EC50) and the cytotoxic concentration that reduces the MT -4 cell viability by 50% (CC50) were determined. Viral activity was evaluated after five days as an HIV-1-induced cytopathic effect quantified by the XTT assay. Selected hits were tested at two-fold serial dilutions from 50 µM concentration, and the drug concentrations required to reduce the viral cytopathic effect by 50% (EC 50) as well as the drug concentrations that reduced MT-4 cell viability by 50% (CC50) were calculated by nonlinear regression using GraphPad Prism v.8.0.0 (GraphPad Software).

In the next series the test system is HIV-1 (NL4-3 strain). Briefly: CPE-based antiviral assay in HIV-1-infected MT-4 cells (XTT). Particulars: Human immunodeficiency virus 1, NL43, MT4, 120 h, cytopathic effect-based assay, MT-4 cells infected by HIV-1 (NL4-3 strain), 5 days post-infection.
From the text: as §4, §5
The viability of the cells was measured by the XTT cell viability and proliferation assay. Briefly, 50 µl of the XTT solution with the addition of PMS (both VWR) was added to the cultivation media and incubated in a humidified incubator maintained at 37 °C with 5% CO2 for four hours, after which absorbance at 560 nm was measured on a VICTOR plate reader (PerkinElmer). […]
as §6

In series [2] the test system is HIV-1. Briefly: Replication assay (RT activity in supernatant). As to conditions: 10 µM, compound added 1 h after infection of MT-4 cells, RT activity 5 days after infection. The protocol:
as §1, §2, §3

We go through 13 molecules from publication PMC10102027, “Helquat dyes targeting G-quadruplexes as a new class of anti-HIV-1 inhibitors” (Scientific Reports, 2023).

Bounds are passed on as bounds.

`C(=C\c1cccc2[n+]1CCc1ccc3c(c1-2)-c1cccc(/C=C/c2ccc(C(=C(c4ccccc4)c4ccccc4)c4ccccc4)cc2)[n+]1CC3)/c1ccc(C(=C(c2ccccc2)c2ccccc2)c2ccccc2)cc1` [Compound 4]: in the series with HIV-1 [1], the “effect on virus adsorption” value is listed as “inhibited adsorption”. For the same molecule, the CC50 at 5 days in “in vitro” was > 50 µM. The molecule further displayed an EC50 in the series with HIV-1 (NL4-3 strain) of 1.51 µM.
`Cn1c(/C=C/c2cccc3[n+]2CCc2ccc4c(c2-3)-c2cccc(/C=C/c3cc5ccccc5n3C)[n+]2CC4)cc2ccccc21` [Compound 9]: the “effect on virus adsorption” value with HIV-1 [1] is reported as “inhibited adsorption”. In addition, the CC50 at 5 days in the series “in vitro” was > 50 µM. The molecule also yielded an EC50 in the series with HIV-1 (NL4-3 strain) of 1.96 µM.
For `CN1/C(=C/c2cccc3[n+]2CCCc2ccc4c(c2-3)-c2cccc(/C=C3\Sc5ccccc5N3C)[n+]2CCC4)Sc2ccccc21` [Compound 10], the “effect on virus adsorption” value with HIV-1 [1] was “inhibited neither adsorption nor replication, or their effect was weak”. Also, the CC50 at 5 days in “in vitro” is > 50 µM. Also, the EC50 in the series on HIV-1 (NL4-3 strain) was determined as 2.18 µM. In the series on HIV-1 [2], the “effect on viral replication” value is “inhibited neither adsorption nor replication, or their effect was weak”.
In the case of `C(=C\c1cc2ccccc2[nH]1)/c1cc[n+]2c(c1)-c1c(ccc3c1-c1cccc[n+]1CCC3)CCC2` [Compound 7], in the series on HIV-1 [1], the “effect on virus adsorption” value is “minimal or no effect on virus adsorption”. For the same molecule, in the series “in vitro”, the CC50 at 5 days is > 50 µM. Besides, the EC50 in the series with HIV-1 (NL4-3 strain) worked out at 1.79 µM. Further, the “effect on viral replication” value in the series with HIV-1 [2] is “significantly impairing viral replication”.
Consider `Cc1c(C)c2c(c3c1CC[n+]1ccc(/C=C/c4c[nH]c5ccccc45)cc1-3)-c1cc(/C=C/c3c[nH]c4ccccc34)cc[n+]1CC2` [Compound 18], for which, in the series with HIV-1 [1], the “effect on virus adsorption” value was “inhibited neither adsorption nor replication, or their effect was weak”. In addition, the CC50 at 5 days in “in vitro” is > 50 µM. This molecule also yielded an EC50 with HIV-1 (NL4-3 strain) of 3.18 µM. The “effect on viral replication” value with HIV-1 [2] is on record as “inhibited neither adsorption nor replication, or their effect was weak”.
In the case of `COc1ccc(/C=C/c2cc[n+]3c(c2)-c2c(c(C)c(C)c4c2-c2cc(/C=C/c5ccc(OC)c6ccccc56)cc[n+]2CC4)CC3)c2ccccc12` [Compound 19], in the series with HIV-1 [1], the “effect on virus adsorption” value is on record as “inhibited neither adsorption nor replication, or their effect was weak”. For the same molecule, in “in vitro”, the CC50 at 5 days is > 50 µM. In addition, the EC50 in the series with HIV-1 (NL4-3 strain) is 3.39 µM. Further, the “effect on viral replication” value with HIV-1 [2] was “inhibited neither adsorption nor replication, or their effect was weak”.
Take `Cc1c(C)c2c(c3c1CC[n+]1ccc(/C=C/c4ccc(-c5ccccc5)s4)cc1-3)-c1cc(/C=C/c3ccc(-c4ccccc4)s3)cc[n+]1CC2` [Compound 11]: in the series on HIV-1 [1], the “effect on virus adsorption” value is reported as “inhibited adsorption”. The CC50 at 5 days in the series “in vitro” is > 50 µM. In the series on HIV-1 (NL4-3 strain), this molecule yielded an EC50 of 2.64 µM.
For the molecule `Cc1c(C)c2c(c3c1CC[n+]1ccc(/C=C/c4c[nH]c5ccc(Br)cc45)cc1-3)-c1cc(/C=C/c3c[nH]c4ccc(Br)cc34)cc[n+]1CC2` [Compound 17], the “effect on virus adsorption” value in the series on HIV-1 [1] is reported as “inhibited neither adsorption nor replication, or their effect was weak”. In addition, the CC50 at 5 days in “in vitro” was > 50 µM. This molecule displayed an EC50 in the series with HIV-1 (NL4-3 strain) of 3.01 µM. The “effect on viral replication” value with HIV-1 [2] is listed as “inhibited neither adsorption nor replication, or their effect was weak”.
As to `Cc1c(C)c2c(c3c1CC[n+]1ccc(/C=C/c4c5ccccc5c(C)c5ccccc45)cc1-3)-c1cc(/C=C/c3c4ccccc4c(C)c4ccccc34)cc[n+]1CC2` [Compound 1], in the series on HIV-1 [1], the “effect on virus adsorption” value is on record as “inhibited neither adsorption nor replication, or their effect was weak”. Also, in “in vitro”, the CC50 at 5 days was > 50 µM. For the same molecule, the EC50 in the series on HIV-1 (NL4-3 strain) is < 1 µM. For the same molecule, the “effect on viral replication” value in the series on HIV-1 [2] was “inhibited neither adsorption nor replication, or their effect was weak”.
`Cc1c(C)c2c(c3c1CC[n+]1ccc(/C=C/c4ccc(N(C)C)cc4)cc1-3)-c1cc(/C=C/c3ccc(N(C)C)cc3)cc[n+]1CC2` [Compound 8]: the “effect on virus adsorption” value in the series on HIV-1 [1] is “inhibited adsorption”. In the series “in vitro”, the CC50 at 5 days was > 50 µM. The molecule also returned an EC50 in the series with HIV-1 (NL4-3 strain) of 1.79 µM.
In the same order, the values of `CN1/C(=C/c2cc3[n+](c4ccccc24)CCCc2ccc4c(c2-3)-c2cccc[n+]2CCC4)Sc2ccccc21` [Compound 2] are “inhibited adsorption”, 24.4 µM and < 1 µM.
As to `Cc1c(C)c2c(c3c1CC[n+]1ccc(/C=C/c4ccc5c(c4)CCO5)cc1-3)-c1cc(/C=C/c3ccc4c(c3)CCO4)cc[n+]1CC2` [Compound 5], the “effect on virus adsorption” value with HIV-1 [1] is recorded as “inhibited neither adsorption nor replication, or their effect was weak”. In addition, the CC50 at 5 days in the series “in vitro” is > 50 µM. For the same molecule, the midpoint of the response in the series with HIV-1 (NL4-3 strain), the EC50, lay at 1.67 µM. In addition, the “effect on viral replication” value in the series with HIV-1 [2] is listed as “inhibited neither adsorption nor replication, or their effect was weak”.
In the case of `COc1ccc(/C=C/c2cc[n+]3c(c2)-c2c(c(C)c(C)c4c2-c2cc(/C=C/c5ccc(OC)cc5OC)cc[n+]2CC4)CC3)c(OC)c1` [Compound 13], the “effect on virus adsorption” value with HIV-1 [1] was “inhibited neither adsorption nor replication, or their effect was weak”. For the same molecule, the CC50 at 5 days in “in vitro” is > 50 µM. Further, the EC50 in the series with HIV-1 (NL4-3 strain) was determined as 2.69 µM. For the same molecule, the “effect on viral replication” value in the series on HIV-1 [2] was “inhibited neither adsorption nor replication, or their effect was weak”.
